Converted amounts (≈) assume the structure as drawn. “And” between values parts separate entries of the source, which are not always exact repeats. Equal values may be shown once.
Assays:
Experiment in all cases: ≥ marks a high value that may be exact or a test limit, other limits are often not marked, values filed in µg/mL are converted to µM
[1] = tested on: Candida albicans ATCC 10231
[2] = tested on: Cryptococcus neoformans ATCC 32045
[3] = tested on: Escherichia coli ATCC 2592
[4] = tested on: Pseudomonas aeruginosa ATCC 10145
[5] = tested on: Staphylococcus aureus ATCC 33591
[6] = tested on: Acinetobacter baumannii ATCC 17978
[7] = tested on: Aspergillus flavus ATCC MYA-3651
[8] = tested on: Aspergillus fumigatus
[9] = tested on: Candida albicans NRRL Y-326
[10] = tested on: Candida krusei NRRL Y-27803
[11] = tested on: Candida parapsilosis NRRL Y-1761
[12] = tested on: Enterobacter cloacae
[13] = tested on: Escherichia coli ATCC 25922
[14] = tested on: Fusarium solani NRRL 28548
[15] = tested on: Klebsiella pneumoniae ATCC 10031
[16] = tested on: Lichtheimia corymbifera NRRL 6251
[17] = tested on: Mucor circinelloides NRRL 3631
[18] = tested on: Pseudomonas aeruginosa ATCC 19660
[19] = tested on: Pseudomonas aeruginosa ATCC 27853
[20] = tested on: Staphylococcus aureus ATCC 25923
[21] = tested on: Staphylococcus aureus ATCC 33592
[22] = tested on: Staphylococcus aureus MR
[23] = tested on: Staphylococcus aureus
[24] = tested on: Staphylococcus epidermidis ATCC 51625
[25] = tested on: Candida tropicalis
[26] = tested on: Escherichia coli
[27] = tested on: Pseudomonas aeruginosa
[28] = tested on: Bacillus subtilis 168
[29] = tested on: Candida glabrata ATCC 2001
[30] = tested on: Candida tropicalis ATCC 13803
[31] = tested on: Klebsiella pneumoniae ATCC 13883
[32] = tested on: Pseudomonas aeruginosa PAO1
[33] = tested on: Staphylococcus aureus MU50
[34] = tested on: Staphylococcus aureus Newman
[35] = tested on: Staphylococcus aureus UAMS-1
[36] = tested on: Staphylococcus aureus USA 200
[37] = tested on: Staphylococcus aureus USA 300
[38] = tested on: Staphylococcus aureus USA 400
[39] = tested on: Staphylococcus epidermidis 1457
[40] = tested on: Acinetobacter baumannii 4-MRGN
[41] = tested on: Enterococcus faecium

CC(C)C[C@H](NC(=O)[C@H](CCCCN)NC(=O)[C@H](CCCCN)NC(=O)[C@H](CC(C)C)NC(=O)[C@H](CC(C)C)NC(=O)[C@H](CCCCN)NC(=O)[C@H](CCCCN)NC(=O)[C@H](CC(C)C)NC(=O)[C@H](CC(C)C)NC(=O)[C@H](CCCCN)NC(=O)[C@H](CCCCN)NC(=O)[C@H](CC(C)C)NC(=O)[C@H](CC(C)C)NC(=O)[C@H](CCCCN)NC(=O)[C@H](CCCCN)NC(=O)[C@H](CC(C)C)NC(=O)[C@H](CC(C)C)NC(=O)[C@H](CCCCN)NC(=O)[C@H](CCCCN)NC(=O)[C@H](CC(C)C)NC(=O)[C@H](CC(C)C)NC(=O)[C@H](CCCCN)NC(=O)[C@H](CCCCN)NC(=O)[C@H](CC(C)C)NC(=O)[C@H](CC(C)C)NC(=O)[C@H](CCCCN)NC(=O)[C@H](CCCCN)NC(=O)[C@@H](N)CC(C)C)C(=O)O [LKKLLKKLLKKLLKKLLKKLLKKLLKKL]
MIC [1]: 104 µM (≈ 354 µg/mL) | MIC [2]: ≥ 32.9 µM | MIC [3]: 25.9 µM (≈ 88 µg/mL) | MIC [4]: ≥ 36.8 µM | MIC [5]: ≥ 73.6 µM

CC[C@H](C)[C@H](NC(=O)[C@H](CCCCN)NC(=O)[C@H](C)NC(=O)[C@H](CCCN=C(N)N)NC(=O)[C@H](CC(C)C)NC(=O)[C@H](CCCN=C(N)N)NC(=O)[C@@H](NC(=O)[C@H](CCCCN)NC(=O)[C@@H](NC(=O)[C@H](CCCCN)NC(=O)[C@H](C)NC(=O)[C@H](CCCN=C(N)N)NC(=O)[C@H](CC(C)C)NC(=O)[C@H](CCCCN)NC(=O)[C@@H](N)Cc1ccccc1)[C@@H](C)CC)C(C)C)C(=O)N[C@@H](CCCCN)C(=O)N[C@@H](CC(C)C)C(N)=O [FKLRAKIKVRLRAKIKL]
MIC [6]: 7.69 µM (≈ 16 µg/mL) | MIC [7]: ≥ 61.5 µM | MIC [8]: ≥ 43.5 µM | MIC [9]: 30.7 µM (≈ 64 µg/mL) | MIC [10]: 30.7 µM (≈ 64 µg/mL) | MIC [11]: 30.7 µM (≈ 64 µg/mL) | MIC [12]: 2.72 µM (≈ 5.65 µg/mL) | MIC [13]: 2.88 µM (≈ 6 µg/mL) | MIC [14]: 0.961 µM (≈ 2 µg/mL) | MIC [15]: 15.4 µM (≈ 32 µg/mL) | MIC [16]: 0.961 µM (≈ 2 µg/mL) | MIC [17]: ≥ 61.5 µM | MIC [18]: 15.4 µM (≈ 32 µg/mL) | MIC [19]: 2.88 µM and 7.69 µM | MIC [20]: 2.88 µM (≈ 6 µg/mL) | MIC [21]: 3.84 µM (≈ 8 µg/mL) | MIC [22]: 3.84 µM (≈ 8 µg/mL) | MIC [23]: 2.72 µM (≈ 5.65 µg/mL) | MIC [24]: 1.92 µM (≈ 4 µg/mL)

CSCC[C@@H]1NC(=O)[C@H](CC(C)C)NC(=O)[C@H](CCCNC(=N)N)NC(=O)[C@H](CO)NC(=O)[C@@H]2CSSC[C@@H]3NC(=O)[C@H](CO)NC(=O)CNC(=O)[C@H]([C@@H](C)O)NC(=O)[C@H](CSSC[C@H](N)C(=O)N[C@@H](CCCCN)C(=O)NCC(=O)N[C@@H](CCCCN)C(=O)NCC(=O)N[C@@H](C)C(=O)N[C@@H](CCCCN)C(=O)N2)NC(=O)[C@H](CSSC[C@@H](C(N)=O)NC(=O)[C@H](CCCCN)NC(=O)CNC(=O)[C@H](CO)NC(=O)[C@H](CCCNC(=N)N)NC3=O)NC(=O)[C@H](CC(=O)O)NC(=O)[C@H](Cc2ccc(O)cc2)NC1=O [CKGKGAKCSRLMYDCCTGSCRSGKC]
MIC [25]: ≥ 39.8 µM | MIC [26]: > 500 µM | MIC [27]: > 500 µM | MIC [23]: > 500 µM

CC[C@H](C)[C@H](NC(=O)[C@@H](NC(=O)[C@@H]1CCCN1C(=O)[C@H](CC(C)C)NC(=O)[C@@H](NC(=O)[C@@H](N)CO)[C@@H](C)CC)[C@@H](C)O)C(=O)N[C@H](C(=O)N[C@@H](CO)C(=O)N[C@@H](Cc1ccccc1)C(=O)N[C@@H](CC(C)C)C(=O)N[C@@H](CO)C(=O)N[C@@H](CCCCN)C(=O)N[C@H](C(=O)N[C@@H](Cc1ccccc1)C(N)=O)C(C)C)C(C)C [SILPTIVSFLSKVF]
MIC [28]: 6.3 µM (≈ 9.76 µg/mL) | MIC [1]: 12.5 µM (≈ 19.4 µg/mL) | MIC [29]: 12.5 µM (≈ 19.4 µg/mL) | MIC [30]: 3.1 µM (≈ 4.8 µg/mL) | MIC [13]: > 50 µM | MIC [31]: ≥ 50 µM | MIC [32]: > 50 µM | MIC [33]: 6.2 µM (≈ 9.61 µg/mL) | MIC [34]: 3.1 µM (≈ 4.8 µg/mL) | MIC [35]: 25 µM (≈ 38.7 µg/mL) | MIC [36]: 3.1 µM (≈ 4.8 µg/mL) | MIC [37]: 3.1 µM (≈ 4.8 µg/mL) | MIC [38]: 3.1 µM (≈ 4.8 µg/mL) | MIC [39]: 3.1 µM (≈ 4.8 µg/mL)

CC[C@H](C)[C@H](NC(=O)[C@H](CCC(=O)O)NC(=O)[C@@H]1CSSC[C@@H]2NC(=O)[C@H](Cc3ccc(O)cc3)NC(=O)[C@@H](NC(=O)[C@@H](NC(=O)[C@H](C)N)[C@@H](C)O)CSSC[C@H](NC(=O)[C@H](CCCN=C(N)N)NC(=O)CNC(=O)[C@H]([C@@H](C)O)NC(=O)[C@H](CCCN=C(N)N)NC2=O)C(=O)N[C@@H](C)C(=O)N[C@@H]([C@@H](C)O)C(=O)N[C@@H](CCCN=C(N)N)C(=O)N[C@@H](CCC(=O)O)C(=O)N[C@@H](CO)C(=O)N[C@@H](CC(C)C)C(=O)N[C@@H](CO)C(=O)NCC(=O)N[C@@H](C(C)C)C(=O)N1)C(=O)N[C@@H](CO)C(=O)NCC(=O)N[C@@H](CCCN=C(N)N)C(=O)N[C@@H](CC(C)C)C(=O)N[C@@H](Cc1ccc(O)cc1)C(=O)N[C@@H](CCCN=C(N)N)C(=O)O [ATCYCRTGRCATRESLSGVCEISGRLYR]
MIC [40]: ≥ 99.9 µM | MIC [41]: ≥ 99.9 µM | MIC [19]: > 99.9 µM

Source: DBAASP
